From US6395757B1, “Method for treating hot flashes in humans” (priority 1998, dated 2002)

What was measured:
[1] = cited from earlier work
[2] = transdermal, tamoxifen-treated women; cited from earlier work
[3] = Daily topical application of 0.5% glycopyrrolate roll-on solution in tamoxifen-treated breast cancer patients (Examples 2 and 3); assay type: in vivo, human
Excerpt: A person treated with tamoxifen for breast cancer described 8 months of hot flashes and perspiration that awakened them from sleep.
A person treated with tamoxifen for breast cancer described hot flashes and perspiration beginning on their scalp, which interfered with their sleep.

[4] = solution applied to the face of the patient; cited from earlier work
[5] = Daily topical application of 0.5% glycopyrrolate lotion in a patient with menopausal hot flashes (Example 1); assay type: in vivo, human
Experimental: The patient is a person with a history of hot flashes and perspiration associated with menopause. They complained about profuse facial, scalp and anterior neck sweating that occurred randomly with the hot flashes. As a treatment, the patient was offered and consented to the application of 0.5% glycopyrrolate topical lotion, which they applied once daily to their forehead and face, sparing their mouth and eyes. The lotion consisted of 1.5 gm glycopyrrolate; 75 ml ethanol; 2.4 gm hydroxyethylcell; brought to a total volume of 300 ml with water and the pH adjusted to 2-4.5.

[6] = Example 2: person on tamoxifen, 0.5% roll-on solution daily to face
[7] = Example 3: person on tamoxifen, 0.5% roll-on solution daily to scalp and around hair line

For `CC(=O)O[C@]1(C(C)=O)CC[C@H]2[C@@H]3C=C(C)C4=CC(=O)CC[C@]4(C)[C@H]3CC[C@@]21C` [megestrol acetate], the “frequency of hot flashes” value ([1]; low dose oral, men and women, short term study) is given as “reduce the frequency of hot flashes” and the “side effect when taken long term” value ([1]; low dose, long term) is given as “chronic adrenal insufficiency can be a side effect”.

In the case of `Clc1cccc(Cl)c1N=C1NCCN1` [clonidine], the “frequency and severity of hot flashes” value [2] is listed as “only a moderate effect”.

For `C[N+]1(C)CCC(OC(=O)C(O)(c2ccccc2)C2CCCC2)C1` (centres unmarked) [glycopyrrolate], the quality of sleep [3, 6] was “improvement in the quality of their sleep”, the “symptoms (hot flashes and perspiration)” value [3, 6] was “greatly relieved their symptoms” and the sleep [3, 7] was “improved sleep”. For the same compound, the “symptoms (hot flashes and perspiration)” value [3, 7] was “greatly relieved their symptoms”, the gustatory sweating [4] was “prevented the gustatory sweating” and the “symptoms during continued use” value ([5]; daily topical roll-on lotion, subsequent 6 months) was “continued to alleviate their symptoms”. For the same compound, the “perspiration associated with the hot flashes” value ([5]; person, menopause, 0.5% lotion once daily to forehead and face) was “complete resolution” and the “hot flashes associated with menopause (patient report)” value ([5]; person, 0.5% lotion once daily to forehead and face) was “alleviated”.
